Assays:
PTPN1 (i.e., PTP1B) = biological target: T1, PTPN1 (i.e., PTP1B) (Homo sapiens, UniProt P18031); assay: Phosphatase activity assay (DiFMUP substrate), PTP1B; assay type: biochemical; conditions: compounds binned ≤1 uM or >1 uM
T1 sequence (P18031 1-435): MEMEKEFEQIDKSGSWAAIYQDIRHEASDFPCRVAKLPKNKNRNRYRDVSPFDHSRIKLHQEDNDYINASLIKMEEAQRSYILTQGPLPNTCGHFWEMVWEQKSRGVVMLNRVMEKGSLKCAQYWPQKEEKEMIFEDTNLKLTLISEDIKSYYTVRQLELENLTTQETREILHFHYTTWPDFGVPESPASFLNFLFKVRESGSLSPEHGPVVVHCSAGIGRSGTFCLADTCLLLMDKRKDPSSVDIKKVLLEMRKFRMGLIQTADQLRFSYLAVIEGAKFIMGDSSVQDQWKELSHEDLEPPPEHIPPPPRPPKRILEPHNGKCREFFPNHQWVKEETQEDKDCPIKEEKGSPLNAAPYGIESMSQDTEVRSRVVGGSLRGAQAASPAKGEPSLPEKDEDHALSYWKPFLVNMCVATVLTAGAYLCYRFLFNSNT
Outline: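 Continuous fluorogenic readout of DiFMUP dephosphorylation at room temperature, substrate set at Km for each phosphatase (about 45 μM in the PTPN2 assay). The buffer contains 1 mM DTT and 0.001% Tween-20, pH 7.5.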

PTPN2 (i.e., TC-PTP) = biological target: T2, PTPN2 (i.e., TC-PTP) (Homo sapiens, UniProt P17706); assay: Phosphatase activity assay (DiFMUP substrate), PTPN2; assay type: biochemical; conditions: compounds binned ≤1 uM or >1 uM
T2 sequence (P17706 1-415): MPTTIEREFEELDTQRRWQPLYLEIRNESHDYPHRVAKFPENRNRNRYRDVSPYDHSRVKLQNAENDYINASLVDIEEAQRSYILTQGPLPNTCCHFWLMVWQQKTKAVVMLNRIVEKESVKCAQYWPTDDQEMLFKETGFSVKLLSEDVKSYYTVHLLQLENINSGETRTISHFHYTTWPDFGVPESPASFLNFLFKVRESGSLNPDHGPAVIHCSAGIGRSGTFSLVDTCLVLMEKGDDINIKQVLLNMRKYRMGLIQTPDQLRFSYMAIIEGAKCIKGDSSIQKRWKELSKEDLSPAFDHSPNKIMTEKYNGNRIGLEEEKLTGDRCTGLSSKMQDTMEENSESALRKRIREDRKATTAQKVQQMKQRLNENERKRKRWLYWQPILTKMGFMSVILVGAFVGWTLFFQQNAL
Outline: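 Using a Km-level DiFMUP substrate and 0.025 ng/ul PTPN2, phosphatase activity is tracked by DiFMU emission at 450 nm over about 15–30 minutes. Initial rates at ten inhibitor concentrations give IC50 by four-parameter fitting.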

Row | Structure (SMILES) | IC50 (PTPN1 (i.e., PTP1B)) | IC50 (PTPN2 (i.e., TC-PTP))
1 | Cn1nc(-c2ccc(O)c(N3CC(=O)NS3(=O)=O)c2F)cc1N [Compound 529, 5-(3-(5-amino-1-methyl-1H-pyrazol-3-yl)-2-fluoro-6-hydroxyphenyl)-1,2,5-thiadiazolidin-3-one 1,1-dioxide] | ≤ 1 µM | ≤ 1 µM
2 | Cc1ccc(-c2ccc(O)c(N3CC(=O)NS3(=O)=O)c2F)o1 [Compound 126, 5-(2-fluoro-6-hydroxy-3-(5-methylfuran-2-yl)phenyl)-1,2,5-thiadiazolidin-3-one 1,1-dioxide] | ≤ 1 µM | ≤ 1 µM
3 | Cn1cc(-c2ccc(O)c(N3CC(=O)NS3(=O)=O)c2F)cn1 [Compound 227, 5-(2-fluoro-6-hydroxy-3-(1-methyl-1H-pyrazol-4-yl)phenyl)-1,2,5-thiadiazolidin-3-one 1,1-dioxide] | ≤ 1 µM | ≤ 1 µM
4 | O=C1CN(c2c(O)ccc(-c3cc(C4CC4(F)F)n(CC(F)F)n3)c2F)S(=O)(=O)N1 (stereo not drawn) [Compound 508, 5-(3-(5-(2,2-difluorocyclopropyl)-1-(2,2-difluoroethyl)-1H-pyrazol-3-yl)-2-fluoro-6-hydroxyphenyl)-1,2,5-thiadiazolidin-3-one 1,1-dioxide] | ≤ 1 µM | ≤ 1 µM
5 | O=C1CN(c2c(O)ccc(-c3cc(N4CCC5(CCCN5)C4)n[nH]3)c2F)S(=O)(=O)N1 (stereo not drawn) [Compound 321, 5-(3-(3-(1,7-diazaspiro[4.4]nonan-7-yl)-1H-pyrazol-5-yl)-2-fluoro-6-hydroxyphenyl)-1,2,5-thiadiazolidin-3-one 1,1-dioxide] | ≤ 1 µM | ≤ 1 µM
6 | Cc1nn(C)cc1-c1ccc(O)c(N2CC(=O)NS2(=O)=O)c1F [Compound 142, 5-(3-(1,3-dimethyl-1H-pyrazol-4-yl)-2-fluoro-6-hydroxyphenyl)-1,2,5-thiadiazolidin-3-one 1,1-dioxide] | ≤ 1 µM | ≤ 1 µM
7 | O=C1CN(c2c(O)ccc(-c3cn(CCC(F)F)nc3F)c2F)S(=O)(=O)N1 [Compound 530, 5-(3-(1-(3,3-difluoropropyl)-3-fluoro-1H-pyrazol-4-yl)-2-fluoro-6-hydroxyphenyl)-1,2,5-thiadiazolidin-3-one 1,1-dioxide] | ≤ 1 µM | ≤ 1 µM
8 | O=C1CN(c2c(O)ccc(-c3cc(N4CCC5(CCN5)C4)n[nH]3)c2F)S(=O)(=O)N1 (stereo not drawn) [Compound 396, 5-(3-(3-(1,6-diazaspiro[3.4]octan-6-yl)-1H-pyrazol-5-yl)-2-fluoro-6-hydroxyphenyl)-1,2,5-thiadiazolidin-3-one 1,1-dioxide] | ≤ 1 µM | ≤ 1 µM
9 | CN1CC2(CCC(n3cc(-c4ccc(O)c(N5CC(=O)NS5(=O)=O)c4F)cn3)C2)C1 (stereo not drawn) [Compound 442, 5-(2-fluoro-6-hydroxy-3-(1-(2-methyl-2-azaspiro[3.4]octan-6-yl)-1H-pyrazol-4-yl)phenyl)-1,2,5-thiadiazolidin-3-one 1,1-dioxide] | ≤ 1 µM | ≤ 1 µM
10 | N#Cc1cc(F)cc(-n2cnc(-c3ccc(O)c(N4CC(=O)NS4(=O)=O)c3F)c2)c1 [Compound 433, 3-(4-(3-(1,1-dioxido-4-oxo-1,2,5-thiadiazolidin-2-yl)-2-fluoro-4-hydroxyphenyl)-1H-imidazol-1-yl)-5-fluorobenzonitrile] | ≤ 1 µM | ≤ 1 µM
11 | COc1ccc(-c2ccc(O)c(N3CC(=O)NS3(=O)=O)c2F)cn1 [Compound 213, 5-(2-fluoro-6-hydroxy-3-(6-methoxypyridin-3-yl)phenyl)-1,2,5-thiadiazolidin-3-one 1,1-dioxide] | ≤ 1 µM | ≤ 1 µM
12 | CC(C)CCNC1CCN(c2ccc(O)c(N3CC(=O)NS3(=O)=O)c2F)C1 (stereo not drawn) [Compound 163, 5-(2-fluoro-6-hydroxy-3-(3-(isopentylamino)pyrrolidin-1-yl)phenyl)-1,2,5-thiadiazolidin-3-one 1,1-dioxide] | ≤ 1 µM | ≤ 1 µM
13 | O=C1CN(c2c(O)ccc(-c3ccc4[nH]ncc4c3)c2F)S(=O)(=O)N1 [Compound 114, 5-(2-fluoro-6-hydroxy-3-(1H-indazol-5-yl)phenyl)-1,2,5-thiadiazolidin-3-one 1,1-dioxide] | ≤ 1 µM | ≤ 1 µM
14 | CCn1cc(-c2ccc(O)c(N3CC(=O)NS3(=O)=O)c2F)c(F)n1 [Compound 506, 5-(3-(1-ethyl-3-fluoro-1H-pyrazol-4-yl)-2-fluoro-6-hydroxyphenyl)-1,2,5-thiadiazolidin-3-one 1,1-dioxide] | ≤ 1 µM | ≤ 1 µM
15 | Cc1nc(-c2ccc(O)c(N3CC(=O)NS3(=O)=O)c2F)cn1C [Compound 199, 5-(3-(1,2-dimethyl-1H-imidazol-4-yl)-2-fluoro-6-hydroxyphenyl)-1,2,5-thiadiazolidin-3-one 1,1-dioxide] | ≤ 1 µM | ≤ 1 µM
16 | N#Cc1ccc(-n2cnc(-c3ccc(O)c(N4CC(=O)NS4(=O)=O)c3F)c2)cc1 [Compound 427, 4-(4-(3-(1,1-dioxido-4-oxo-1,2,5-thiadiazolidin-2-yl)-2-fluoro-4-hydroxyphenyl)-1H-imidazol-1-yl)benzonitrile] | ≤ 1 µM | ≤ 1 µM

Next, values leading:

Row | IC50 (PTPN1 (i.e., PTP1B)) | IC50 (PTPN2 (i.e., TC-PTP)) | Structure (SMILES)
17 | ≤ 1 µM | ≤ 1 µM | O=C1CN(c2c(O)ccc(-c3cc(N4CCC(O)C4)n[nH]3)c2F)S(=O)(=O)N1 (stereo not drawn) [Compound 448, 5-(2-fluoro-6-hydroxy-3-(3-(3-hydroxypyrrolidin-1-yl)-1H-pyrazol-5-yl)phenyl)-1,2,5-thiadiazolidin-3-one 1,1-dioxide]
18 | ≤ 1 µM | ≤ 1 µM | O=C1CN(c2c(O)ccc(-c3cc(N4CC(c5ccccc5)C4)n[nH]3)c2F)S(=O)(=O)N1 [Compound 356, 5-(2-fluoro-6-hydroxy-3-(3-(3-phenylazetidin-1-yl)-1H-pyrazol-5-yl)phenyl)-1,2,5-thiadiazolidin-3-one 1,1-dioxide]
19 | ≤ 1 µM | ≤ 1 µM | NCC1CCCN1c1cc(-c2ccc(O)c(N3CC(=O)NS3(=O)=O)c2F)[nH]n1 (stereo not drawn) [Compound 308, 5-(3-(3-(2-(aminomethyl)pyrrolidin-1-yl)-1H-pyrazol-5-yl)-2-fluoro-6-hydroxyphenyl)-1,2,5-thiadiazolidin-3-one 1,1-dioxide]
20 | ≤ 1 µM | ≤ 1 µM | COC(=O)n1nc(C2CC2)cc1-c1ccc(O)c(N2CC(=O)NS2(=O)=O)c1F [Compound 545, methyl 3-cyclopropyl-5-(3-(1,1-dioxido-4-oxo-1,2,5-thiadiazolidin-2-yl)-2-fluoro-4-hydroxyphenyl)-1H-pyrazole-1-carboxylate]
21 | ≤ 1 µM | ≤ 1 µM | CC(C)CCc1cnc(-c2ccc(O)c(N3CC(=O)NS3(=O)=O)c2F)[nH]1 [Compound 262, 5-(2-fluoro-6-hydroxy-3-(5-isopentyl-1H-imidazol-2-yl)phenyl)-1,2,5-thiadiazolidin-3-one 1,1-dioxide]
22 | ≤ 1 µM | ≤ 1 µM | N#Cc1cc(-c2ccc(O)c(N3CC(=O)NS3(=O)=O)c2F)[nH]n1 [Compound 439, 5-(3-(1,1-dioxido-4-oxo-1,2,5-thiadiazolidin-2-yl)-2-fluoro-4-hydroxyphenyl)-1H-pyrazole-3-carbonitrile]
23 | ≤ 1 µM | ≤ 1 µM | O=C1CN(c2c(O)ccc(-c3cnn(Cc4cccc(F)c4)c3)c2F)S(=O)(=O)N1 [Compound 222, 5-(2-fluoro-3-(1-(3-fluorobenzyl)-1H-pyrazol-4-yl)-6-hydroxyphenyl)-1,2,5-thiadiazolidin-3-one 1,1-dioxide]
24 | ≤ 1 µM | ≤ 1 µM | O=C1CN(c2c(O)ccc(-c3cc4ccccc4[nH]3)c2F)S(=O)(=O)N1 [Compound 258, 5-(2-fluoro-6-hydroxy-3-(1H-indol-2-yl)phenyl)-1,2,5-thiadiazolidin-3-one 1,1-dioxide]
25 | ≤ 1 µM | ≤ 1 µM | CC(F)(F)n1cc(-c2ccc(O)c(N3CC(=O)NS3(=O)=O)c2F)cn1 [Compound 516, 5-(3-(1-(1,1-difluoroethyl)-1H-pyrazol-4-yl)-2-fluoro-6-hydroxyphenyl)-1,2,5-thiadiazolidin-3-one 1,1-dioxide]
26 | ≤ 1 µM | ≤ 1 µM | O=C1CN(c2c(O)ccc(C3=CC(CCC4CC4)NC3)c2F)S(=O)(=O)N1 (stereo not drawn) [Compound 539, 5-(3-(5-(2-cyclopropylethyl)-2,5-dihydro-1H-pyrrol-3-yl)-2-fluoro-6-hydroxyphenyl)-1,2,5-thiadiazolidin-3-one 1,1-dioxide]
27 | ≤ 1 µM | ≤ 1 µM | O=C1CN(c2c(O)ccc(-c3cnn(CCc4ccccc4)c3)c2F)S(=O)(=O)N1 [Compound 207, 5-(2-fluoro-6-hydroxy-3-(1-phenethyl-1H-pyrazol-4-yl)phenyl)-1,2,5-thiadiazolidin-3-one 1,1-dioxide]

Reference: patent US20240398828A1, “HETERO-ATOM CONTAINING COMPOUNDS AND USES THEREOF” (Kumquat Biosciences Inc., priority 2021, published 2024)
